Reference: PubChem BioAssay (NCI)
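96-well plates; 48 h exposure; 5 concentrations. Endpoints by linear interpolation between flanking doses. Not reached: highest tested concentration assigned. TGI: concentration producing complete growth inhibition.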

Experiments:
Assay in all cases: NCI-60 cell line screen, 48 h
[1] = test system: 786-0 renal
[2] = test system: A498 renal
[3] = test system: A549 NSCLC
[4] = test system: ACHN renal
[5] = test system: BT-549 breast
[6] = test system: CAKI-1 renal
[7] = test system: CCRF-CEM leukemia
[8] = test system: COLO 205 colon
[9] = test system: DU-145 prostate
[10] = test system: EKVX NSCLC
[11] = test system: HCC-2998 colon
[12] = test system: HCT-116 colon
[13] = test system: HCT-15 colon
[14] = test system: HL-60(TB) leukemia
[15] = test system: HOP-62 NSCLC
[16] = test system: HOP-92 NSCLC
[17] = test system: HS 578T breast
[18] = test system: HT29 colon
[19] = test system: IGROV1 ovarian
[20] = test system: K-562 leukemia
[21] = test system: KM12 colon
[22] = test system: LOX IMVI melanoma
[23] = test system: M14 melanoma
[24] = test system: MALME-3M melanoma
[25] = test system: MCF7 breast
[26] = test system: MDA-MB-435
[27] = test system: MDA-N
[28] = test system: MOLT-4 leukemia
[29] = test system: NCI-H226 lung
[30] = test system: NCI-H23 lung
[31] = test system: NCI-H460 lung
[32] = test system: NCI-H522 lung
[33] = test system: NCI/ADR-RES ovarian
[34] = test system: OVCAR-4 ovarian
[35] = test system: OVCAR-5 ovarian
[36] = test system: OVCAR-8 ovarian
[37] = test system: PC-3 prostate
[38] = test system: RPMI-8226 leukemia
[39] = test system: RXF 393 renal
[40] = test system: SF-268 CNS
[41] = test system: SF-295 CNS
[42] = test system: SF-539 CNS
[43] = test system: SK-MEL-2 melanoma
[44] = test system: SK-MEL-28 melanoma
[45] = test system: SK-MEL-5 melanoma
[46] = test system: SK-OV-3 ovarian
[47] = test system: SN12C renal
[48] = test system: SNB-19 CNS
[49] = test system: SNB-75 CNS
[50] = test system: SR leukemia
[51] = test system: SW-620 colon
[52] = test system: T-47D breast
[53] = test system: TK-10 renal
[54] = test system: U251 CNS
[55] = test system: UACC-257 melanoma
[56] = test system: UACC-62 melanoma
[57] = test system: UO-31 renal
[58] = test system: OVCAR-3 ovarian

Question: Which results are given for `CC(=O)N=C1C=C(NC(C)=O)C(=O)c2ccccc21`?
Answer: TGI [1]: 3.37 µM; TGI [2]: 28.6 µM; TGI [3]: 19.1 µM; TGI [4]: 3.12 µM; TGI [5]: 4.85 µM; TGI [6]: 3.43 µM; TGI [7]: 7.62 µM; TGI [8]: 3.79 µM; TGI [9]: 3.18 µM; TGI [10]: 12.5 µM; TGI [11]: 34.3 µM; TGI [12]: 3.62 µM; TGI [13]: 9.13 µM; TGI [14]: 6.84 µM; TGI [15]: 40.4 µM; TGI [16]: 3.15 µM; TGI [17]: 56.5 µM; TGI [18]: 6.27 µM; TGI [19]: 3.59 µM; TGI [20]: 7.01 µM; TGI [21]: 17.5 µM; TGI [22]: 3.19 µM; TGI [23]: 3.33 µM; TGI [24]: 3.62 µM; TGI [25]: 3.46 µM; TGI [26]: 3.48 µM; TGI [27]: 3.38 µM; TGI [28]: 5.17 µM; TGI [29]: 14.9 µM; TGI [30]: 2.3 µM; TGI [31]: 28.1 µM; TGI [32]: 3.06 µM; TGI [33]: 7.59 µM; TGI [34]: 3.09 µM; TGI [35]: 4.58 µM; TGI [36]: 6.04 µM; TGI [37]: 7.49 µM; TGI [38]: 4.13 µM; TGI [39]: 5.46 µM; TGI [40]: 10.2 µM; TGI [41]: 8.88 µM; TGI [42]: 6.39 µM; TGI [43]: 10.7 µM; TGI [44]: 8.04 µM; TGI [45]: 3.19 µM; TGI [46]: 19.9 µM; TGI [47]: 3.47 µM; TGI [48]: 7.9 µM; TGI [49]: 8.66 µM; TGI [50]: 4.06 µM; TGI [51]: 3.86 µM; TGI [52]: 4.05 µM; TGI [53]: 12.3 µM; TGI [54]: 10.7 µM; TGI [55]: 3.33 µM; TGI [56]: 6.18 µM; TGI [57]: 4.26 µM

Question: Which results are given for `CC1(C)C(OC(=O)c2ccccc2)C[C@]23CCC[C@](C)(C[C@@H](O)C12)C3` (some centres not stated)?
Answer: TGI [1]: 35.7 µM; TGI [3]: 34.1 µM; TGI [4]: 31.9 µM; TGI [5]: 30.3 µM; TGI [6]: 40.8 µM; TGI [7]: 37.4 µM; TGI [8]: 33.6 µM; TGI [9]: 52.4 µM; TGI [10]: 36.8 µM; TGI [12]: 29.1 µM; TGI [13]: 37.1 µM; TGI [14]: > 100 µM; TGI [15]: 63.4 µM; TGI [16]: 32.5 µM; TGI [17]: 40.4 µM; TGI [18]: 31.4 µM; TGI [19]: 36.3 µM; TGI [20]: 54.8 µM; TGI [21]: 32.1 µM; TGI [22]: 38.9 µM; TGI [23]: 38.9 µM; TGI [24]: 38.5 µM; TGI [25]: 30.6 µM; TGI [26]: 32.2 µM; TGI [27]: 36.8 µM; TGI [28]: 33.7 µM; TGI [29]: 37.5 µM; TGI [30]: 34 µM; TGI [31]: 31.3 µM; TGI [32]: 31.4 µM; TGI [33]: 46.7 µM; TGI [58]: 78.9 µM; TGI [34]: 46.6 µM; TGI [35]: 28.6 µM; TGI [36]: 36.2 µM; TGI [37]: 28.1 µM; TGI [38]: > 100 µM; TGI [40]: 59.5 µM; TGI [41]: 28.1 µM; TGI [43]: 35.8 µM; TGI [44]: 29.8 µM; TGI [45]: 25.8 µM; TGI [46]: > 100 µM; TGI [47]: 34.6 µM; TGI [48]: 47.8 µM; TGI [49]: 34.8 µM; TGI [50]: > 100 µM; TGI [51]: 27.9 µM; TGI [52]: 43.7 µM; TGI [53]: 91.6 µM; TGI [55]: 35.5 µM; TGI [56]: 29 µM; TGI [57]: 35.6 µM

Question: `O=C(O)C1CCCN1C(=O)c1cc(Cl)ccn1` (configuration not stated) was tested. Which TGI [1] did it give?
Answer: > 100 µM

Question: And the TGI [2]?
Answer: > 100 µM

Question: And the TGI [3]?
Answer: > 100 µM

Question: What about the TGI [4] of the same compound?
Answer: > 100 µM

Question: And the TGI [5]?
Answer: > 100 µM

Question: And the TGI [6]?
Answer: > 100 µM

Question: And the TGI [7]?
Answer: > 100 µM

Question: What about the TGI [8] of the same compound?
Answer: > 100 µM

Question: And the TGI [9]?
Answer: > 100 µM

Question: And the TGI [10]?
Answer: > 100 µM

Question: What about the TGI [11] of the same compound?
Answer: > 100 µM

Question: What about the TGI [12] of the same compound?
Answer: > 100 µM

Question: And the TGI [13]?
Answer: > 100 µM

Question: What about the TGI [14] of the same compound?
Answer: > 100 µM

Question: And the TGI [15]?
Answer: > 100 µM

Question: What about the TGI [16] of the same compound?
Answer: > 100 µM

Question: What about the TGI [17] of the same compound?
Answer: > 100 µM

Question: What about the TGI [18] of the same compound?
Answer: > 100 µM

Question: And the TGI [19]?
Answer: > 100 µM

Question: What about the TGI [20] of the same compound?
Answer: > 100 µM

Question: What about the TGI [21] of the same compound?
Answer: > 100 µM

Question: What about the TGI [22] of the same compound?
Answer: > 100 µM

Question: What about the TGI [23] of the same compound?
Answer: > 100 µM

Question: And the TGI [24]?
Answer: > 100 µM

Question: What about the TGI [25] of the same compound?
Answer: > 100 µM

Question: And the TGI [26]?
Answer: > 100 µM

Question: What about the TGI [27] of the same compound?
Answer: > 100 µM

Question: What about the TGI [28] of the same compound?
Answer: > 100 µM

Question: What about the TGI [29] of the same compound?
Answer: > 100 µM

Question: And the TGI [30]?
Answer: > 100 µM

Question: And the TGI [31]?
Answer: > 100 µM

Question: What about the TGI [32] of the same compound?
Answer: > 100 µM

Question: And the TGI [33]?
Answer: > 100 µM

Question: What about the TGI [58] of the same compound?
Answer: > 100 µM

Question: And the TGI [34]?
Answer: > 100 µM

Question: What about the TGI [35] of the same compound?
Answer: > 100 µM

Question: What about the TGI [36] of the same compound?
Answer: > 100 µM

Question: What about the TGI [37] of the same compound?
Answer: > 100 µM

Question: What about the TGI [38] of the same compound?
Answer: > 100 µM

Question: What about the TGI [39] of the same compound?
Answer: > 100 µM

Question: And the TGI [40]?
Answer: > 100 µM

Question: What about the TGI [41] of the same compound?
Answer: > 100 µM

Question: What about the TGI [42] of the same compound?
Answer: > 100 µM

Question: And the TGI [43]?
Answer: > 100 µM

Question: And the TGI [44]?
Answer: > 100 µM

Question: And the TGI [45]?
Answer: > 100 µM

Question: What about the TGI [47] of the same compound?
Answer: > 100 µM

Question: What about the TGI [48] of the same compound?
Answer: > 100 µM

Question: What about the TGI [49] of the same compound?
Answer: > 100 µM

Question: And the TGI [50]?
Answer: > 100 µM

Question: And the TGI [51]?
Answer: > 100 µM

Question: What about the TGI [52] of the same compound?
Answer: > 100 µM

Question: And the TGI [53]?
Answer: > 100 µM

Question: And the TGI [54]?
Answer: > 100 µM

Question: And the TGI [55]?
Answer: > 100 µM

Question: What about the TGI [56] of the same compound?
Answer: > 100 µM

Question: What about the TGI [57] of the same compound?
Answer: > 100 µM
